Assay results taken from PubChem BioAssay (NCI).
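1) Cells in 96-well plates. 2) Compound, 48 h, 5 concentrations. 3) Linear interpolation between surrounding doses. 4) Unreached endpoint = highest concentration. GI50 = concentration required for 50% inhibition of growth. Definition used: TGI = concentration required for complete inhibition of growth.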

Key:
Test in all cases: NCI tumour cell line growth inhibition, 48 h
A549 NSCLC = tested on: A549 NSCLC
SK-OV-3 ovarian = tested on: SK-OV-3 ovarian
UO-31 renal = tested on: UO-31 renal
LOX IMVI melanoma = tested on: LOX IMVI melanoma
IGROV1 ovarian = tested on: IGROV1 ovarian
HOP-92 NSCLC = tested on: HOP-92 NSCLC
OVCAR-8 ovarian = tested on: OVCAR-8 ovarian
HL-60(TB) leukemia = tested on: HL-60(TB) leukemia
A498 renal = tested on: A498 renal
HCT-116 colon = tested on: HCT-116 colon
OVCAR-4 ovarian = tested on: OVCAR-4 ovarian
HCC-2998 colon = tested on: HCC-2998 colon
TK-10 renal = tested on: TK-10 renal
LXFL 529 NSCLC = tested on: LXFL 529 NSCLC
OVCAR-5 ovarian = tested on: OVCAR-5 ovarian
SF-295 CNS = tested on: SF-295 CNS
UACC-62 melanoma = tested on: UACC-62 melanoma
SNB-75 CNS = tested on: SNB-75 CNS
M14 melanoma = tested on: M14 melanoma
HCT-15 colon = tested on: HCT-15 colon
SF-268 CNS = tested on: SF-268 CNS
SF-539 CNS = tested on: SF-539 CNS
SK-MEL-5 melanoma = tested on: SK-MEL-5 melanoma
UACC-257 melanoma = tested on: UACC-257 melanoma
SN12C renal = tested on: SN12C renal
NCI-H460 lung = tested on: NCI-H460 lung
NCI-H23 lung = tested on: NCI-H23 lung
NCI-H522 lung = tested on: NCI-H522 lung
ACHN renal = tested on: ACHN renal
HT29 colon = tested on: HT29 colon
COLO 205 colon = tested on: COLO 205 colon
MOLT-4 leukemia = tested on: MOLT-4 leukemia
K-562 leukemia = tested on: K-562 leukemia
OVCAR-3 ovarian = tested on: OVCAR-3 ovarian
SNB-19 CNS = tested on: SNB-19 CNS
MALME-3M melanoma = tested on: MALME-3M melanoma
EKVX NSCLC = tested on: EKVX NSCLC
CAKI-1 renal = tested on: CAKI-1 renal
SNB-78 CNS = tested on: SNB-78 CNS
M19-MEL melanoma = tested on: M19-MEL melanoma
HOP-18 NSCLC = tested on: HOP-18 NSCLC
CCRF-CEM leukemia = tested on: CCRF-CEM leukemia
U251 CNS = tested on: U251 CNS
RPMI-8226 leukemia = tested on: RPMI-8226 leukemia
786-0 renal = tested on: 786-0 renal
KM12 colon = tested on: KM12 colon
DLD-1 colon = tested on: DLD-1 colon
NCI-H226 lung = tested on: NCI-H226 lung
SW-620 colon = tested on: SW-620 colon
RXF 393 renal = tested on: RXF 393 renal
SK-MEL-28 melanoma = tested on: SK-MEL-28 melanoma
HOP-62 NSCLC = tested on: HOP-62 NSCLC
KM20L2 colon = tested on: KM20L2 colon
SK-MEL-2 melanoma = tested on: SK-MEL-2 melanoma
SR leukemia = tested on: SR leukemia
XF 498 CNS = tested on: XF 498 CNS
DMS 114 small cell lung = tested on: DMS 114 small cell lung
DMS 273 small cell lung = tested on: DMS 273 small cell lung

## NC1CCCCC1N.O=[Se]([O-])[O-].[Pt+4] (centres undefined)
A549 NSCLC
  GI50: 0.48 µM
  TGI: > 61.8 µM
SK-OV-3 ovarian
  GI50: 27.8 µM
  TGI: > 100 µM
UO-31 renal
  GI50: 1.05 µM
  TGI: 16.7 µM
LOX IMVI melanoma
  GI50: 0.677 µM
  TGI: > 100 µM
IGROV1 ovarian
  GI50: 2.11 µM
  TGI: > 46 µM
HOP-92 NSCLC
  GI50: 25.3 µM
  TGI: 82.1 µM
OVCAR-8 ovarian
  GI50: 0.922 µM
  TGI: > 100 µM
HL-60(TB) leukemia
  GI50: 0.315 µM
  TGI: > 28.9 µM
A498 renal
  GI50: 1.76 µM
  TGI: 24.8 µM
HCT-116 colon
  GI50: 0.236 µM
  TGI: > 45.2 µM
OVCAR-4 ovarian
  GI50: 2.63 µM
  TGI: > 100 µM
HCC-2998 colon
  GI50: 2.98 µM
  TGI: 11.1 µM
TK-10 renal
  GI50: 28.4 µM
  TGI: > 100 µM
LXFL 529 NSCLC
  GI50: 6.25 µM
  TGI: > 100 µM
OVCAR-5 ovarian
  GI50: 1.83 µM
  TGI: 27.9 µM
SF-295 CNS
  GI50: 0.304 µM
  TGI: 21.6 µM
UACC-62 melanoma
  GI50: 1.33 µM
  TGI: > 41.8 µM
SNB-75 CNS
  GI50: 66.3 µM
  TGI: > 100 µM
M14 melanoma
  GI50: 2.51 µM
  TGI: > 52.2 µM
HCT-15 colon
  GI50: 0.747 µM
  TGI: > 45.5 µM
SF-268 CNS
  GI50: 0.549 µM
  TGI: > 76.8 µM
SF-539 CNS
  GI50: 1.18 µM
  TGI: 20.6 µM
SK-MEL-5 melanoma
  GI50: 0.713 µM
UACC-257 melanoma
  GI50: 2.18 µM
  TGI: > 64.8 µM
SN12C renal
  GI50: 1.67 µM
  TGI: > 100 µM
NCI-H460 lung
  GI50: 0.205 µM
  TGI: 5.15 µM
NCI-H23 lung
  GI50: 1.51 µM
  TGI: 17.1 µM
NCI-H522 lung
  GI50: 0.589 µM
  TGI: 11.2 µM
ACHN renal
  GI50: 0.653 µM
  TGI: > 52.4 µM
HT29 colon
  GI50: 0.169 µM
  TGI: 17.5 µM
COLO 205 colon
  GI50: 1.19 µM
  TGI: 17.5 µM
MOLT-4 leukemia
  GI50: 0.0775 µM
  TGI: > 100 µM
K-562 leukemia
  GI50: 0.413 µM
  TGI: > 49.8 µM
OVCAR-3 ovarian
  GI50: 17 µM
  TGI: > 100 µM
SNB-19 CNS
  GI50: 1.32 µM
  TGI: > 100 µM
MALME-3M melanoma
  GI50: 0.986 µM
  TGI: 5.26 µM
EKVX NSCLC
  GI50: > 35.2 µM
  TGI: > 100 µM
CAKI-1 renal
  GI50: 1.08 µM
  TGI: 45.3 µM
SNB-78 CNS
  GI50: 69.8 µM
  TGI: > 100 µM
M19-MEL melanoma
  GI50: 0.412 µM
  TGI: 15.5 µM
HOP-18 NSCLC
  GI50: 27 µM
  TGI: > 100 µM
CCRF-CEM leukemia
  GI50: 0.203 µM
  TGI: 97.7 µM
U251 CNS
  GI50: 0.666 µM
  TGI: 15.7 µM
RPMI-8226 leukemia
  GI50: < 0.0336 µM
  TGI: > 37.1 µM
786-0 renal
  GI50: 0.0552 µM
  TGI: 20.3 µM
KM12 colon
  GI50: 2.51 µM
  TGI: > 100 µM
DLD-1 colon
  GI50: 1.81 µM
  TGI: > 83.8 µM
NCI-H226 lung
  GI50: 6.42 µM
  TGI: 29.3 µM
SW-620 colon
  GI50: 0.0901 µM
  TGI: > 39.9 µM
RXF 393 renal
  GI50: 7.33 µM
  TGI: 57.1 µM
SK-MEL-28 melanoma
  GI50: 2.01 µM
  TGI: 32.9 µM
HOP-62 NSCLC
  GI50: 2.52 µM
  TGI: > 51.4 µM
KM20L2 colon
  GI50: 0.233 µM
  TGI: 26.9 µM
SK-MEL-2 melanoma
  GI50: 6 µM
  TGI: 31.1 µM

## OCCCNc1ccnc2cc(Cl)ccc12
A549 NSCLC
  TGI: > 100 µM
SK-OV-3 ovarian
  TGI: > 100 µM
UO-31 renal
  TGI: > 100 µM
LOX IMVI melanoma
  TGI: > 100 µM
IGROV1 ovarian
  TGI: > 100 µM
HOP-92 NSCLC
  TGI: > 100 µM
SR leukemia
  TGI: > 100 µM
OVCAR-8 ovarian
  TGI: > 100 µM
HL-60(TB) leukemia
  TGI: > 100 µM
A498 renal
  TGI: > 100 µM
HCT-116 colon
  TGI: > 100 µM
OVCAR-4 ovarian
  TGI: > 100 µM
HCC-2998 colon
  TGI: > 100 µM
TK-10 renal
  TGI: > 100 µM
LXFL 529 NSCLC
  TGI: > 100 µM
OVCAR-5 ovarian
  TGI: > 100 µM
XF 498 CNS
  TGI: > 100 µM
SF-295 CNS
  TGI: > 100 µM
UACC-62 melanoma
  TGI: > 100 µM
SNB-75 CNS
  TGI: > 100 µM
M14 melanoma
  TGI: > 100 µM
HCT-15 colon
  TGI: > 100 µM
SF-268 CNS
  TGI: > 100 µM
SF-539 CNS
  TGI: > 100 µM
SK-MEL-5 melanoma
  TGI: > 100 µM
UACC-257 melanoma
  TGI: > 100 µM
SN12C renal
  TGI: > 100 µM
NCI-H460 lung
  TGI: > 100 µM
NCI-H23 lung
  TGI: > 100 µM
NCI-H522 lung
  TGI: > 100 µM
ACHN renal
  TGI: > 100 µM
HT29 colon
  TGI: > 100 µM
COLO 205 colon
  TGI: > 100 µM
MOLT-4 leukemia
  TGI: > 100 µM
K-562 leukemia
  TGI: > 100 µM
OVCAR-3 ovarian
  TGI: > 100 µM
SNB-19 CNS
  TGI: > 100 µM
MALME-3M melanoma
  TGI: > 100 µM
EKVX NSCLC
  TGI: > 100 µM
CAKI-1 renal
  TGI: > 100 µM
SNB-78 CNS
  TGI: > 100 µM
M19-MEL melanoma
  TGI: > 100 µM
HOP-18 NSCLC
  TGI: > 100 µM
CCRF-CEM leukemia
  TGI: > 100 µM
U251 CNS
  TGI: > 100 µM
RPMI-8226 leukemia
  TGI: > 100 µM
786-0 renal
  TGI: > 100 µM
KM12 colon
  TGI: > 100 µM
DLD-1 colon
  TGI: > 100 µM
DMS 114 small cell lung
  TGI: > 100 µM
NCI-H226 lung
  TGI: > 100 µM
SW-620 colon
  TGI: > 100 µM
RXF 393 renal
  TGI: > 100 µM
SK-MEL-28 melanoma
  TGI: > 100 µM
HOP-62 NSCLC
  TGI: > 100 µM
KM20L2 colon
  TGI: > 100 µM
SK-MEL-2 melanoma
  TGI: > 100 µM

## O=C(Nc1cccc(C(F)(F)F)c1)C(=O)C1NC(=S)NC1=O (centres undefined)
A549 NSCLC
  TGI: > 100 µM
SK-OV-3 ovarian
  TGI: > 100 µM
UO-31 renal
  TGI: > 100 µM
LOX IMVI melanoma
  TGI: > 100 µM
IGROV1 ovarian
  TGI: > 100 µM
DMS 273 small cell lung
  TGI: > 100 µM
HOP-92 NSCLC
  TGI: > 100 µM
SR leukemia
  TGI: > 100 µM
OVCAR-8 ovarian
  TGI: > 100 µM
HL-60(TB) leukemia
  TGI: > 100 µM
A498 renal
  TGI: > 100 µM
HCT-116 colon
  TGI: > 100 µM
OVCAR-4 ovarian
  TGI: > 100 µM
HCC-2998 colon
  TGI: > 100 µM
TK-10 renal
  TGI: > 100 µM
LXFL 529 NSCLC
  TGI: > 100 µM
OVCAR-5 ovarian
  TGI: > 100 µM
SF-295 CNS
  TGI: > 100 µM
UACC-62 melanoma
  TGI: > 100 µM
SNB-75 CNS
  TGI: > 100 µM
M14 melanoma
  TGI: > 100 µM
HCT-15 colon
  TGI: > 100 µM
SF-268 CNS
  TGI: > 100 µM
SF-539 CNS
  TGI: > 100 µM
SK-MEL-5 melanoma
  TGI: > 100 µM
UACC-257 melanoma
  TGI: > 100 µM
SN12C renal
  TGI: > 100 µM
NCI-H460 lung
  TGI: > 100 µM
NCI-H23 lung
  TGI: > 100 µM
ACHN renal
  TGI: > 100 µM
HT29 colon
  TGI: > 100 µM
COLO 205 colon
  TGI: > 100 µM
MOLT-4 leukemia
  TGI: > 100 µM
K-562 leukemia
  TGI: > 100 µM
OVCAR-3 ovarian
  TGI: > 100 µM
SNB-19 CNS
  TGI: > 100 µM
MALME-3M melanoma
  TGI: > 100 µM
EKVX NSCLC
  TGI: > 100 µM
CAKI-1 renal
  TGI: > 100 µM
SNB-78 CNS
  TGI: > 100 µM
M19-MEL melanoma
  TGI: > 100 µM
HOP-18 NSCLC
  TGI: > 100 µM
CCRF-CEM leukemia
  TGI: > 100 µM
RPMI-8226 leukemia
  TGI: > 100 µM
786-0 renal
  TGI: > 100 µM
KM12 colon
  TGI: > 100 µM
DLD-1 colon
  TGI: > 100 µM
DMS 114 small cell lung
  TGI: > 100 µM
NCI-H226 lung
  TGI: > 100 µM
SW-620 colon
  TGI: 36.5 µM
RXF 393 renal
  TGI: > 100 µM
SK-MEL-28 melanoma
  TGI: > 100 µM
HOP-62 NSCLC
  TGI: > 100 µM
KM20L2 colon
  TGI: > 100 µM
SK-MEL-2 melanoma
  TGI: > 100 µM
